{"source": "patent US20140296354A1", "about": "“SYNTHESIS OF PEPTOID-BASED SMALL MOLECULAR GELATORS FROM MULTIPLE COMPONENT REACTIONS” (OLD DOMINION UNIVERSITY RESEARCH FOUNDATION, priority 2013, published 2014)", "assay_type_in_all_cases": "physicochemical", "key": {"[1]": {"test": "Gelation test in solvents at room temperature", "conditions": "for preliminary MGC (stable gel) / Gelation result / concentration of slightly unstable or partial gel (UG): Table 3", "description": "(§1) Gelation tests were performed by adding incremental amounts of compounds to a solvent or solvent system at room temperature and observing the results (i.e., gel formation, solubility of compounds, insolubility of compounds, or formation of a precipitate). […] The term “precipation” means that the compound dissolves upon heating and sonicating, however, it crashes out of solution when the heat is removed.\n(§2) After the compounds were synthesized, they were screened for gelation properties. […] For the compounds with new chiral centers, they formed gels in aqueous environment preferentially."}, "[2]": {"test": "Gelation test in solvents at room temperature", "parameters": "key: I, insoluble; P, precipitating; S, soluble at ~20 mg/mL; G, gel at room temperature; number is minimum gelation concentration", "conditions": "Table 3", "description": "as §1, §2"}, "[3]": {"test": "Gelation test in solvents at room temperature", "parameters": "key: S, soluble (starting test at 20 mg/mL); I, insoluble; P, precipitate; G, stable gel, the numbers after G are preliminary MGCs in mg/mL; UG, slightly unstable gels or partial gels, concentrations are 20 mg/mL unless otherwise noted", "conditions": "Table 3", "description": "as §1, §2"}}}
{"smiles": "COC1OC2COC(c3ccccc3)OC2C(O)C1N(CC(=O)NC1CCCCC1)C(C)=O", "note": "(stereo not shown) [Compound 31]", "values": [{"measurement": "preliminary MGC (stable gel)", "setting": "[1]; DMSO:H2O 1:1", "result": 10.0, "unit": "mg/mL"}, {"measurement": "preliminary MGC (stable gel)", "setting": "[1]; DMSO:H2O 1:2", "result": 10.0, "unit": "mg/mL"}, {"measurement": "Gelation result", "setting": "[1]; EtOH:H2O (1:2)", "result": "S (S, soluble (starting test at 20 mg/mL))"}, {"measurement": "preliminary MGC (stable gel)", "setting": "[1]; EtOH", "result": 10.0, "unit": "mg/mL"}, {"measurement": "Gelation result", "setting": "[2]; Hexane", "result": "I"}, {"measurement": "Gelation result", "setting": "[3]; DMSO:H2O 1:1", "result": "G"}, {"measurement": "Gelation result", "setting": "[3]; DMSO:H2O 1:2", "result": "G"}, {"measurement": "Gelation result", "setting": "[3]; EtOH", "result": "G"}, {"measurement": "Gelation result", "setting": "[3]; Water", "result": "P"}]}
{"smiles": "CCOC(=O)CNC(=O)CN(C(=O)c1ccc(Br)cc1)C1C(OCC)OC2COC(c3ccccc3)OC2C1O", "note": "(stereo not shown) [Compound 32]", "values": [{"measurement": "preliminary MGC (stable gel)", "setting": "[1]; DMSO:H2O 1:1", "result": 20.0, "unit": "mg/mL"}, {"measurement": "concentration of slightly unstable or partial gel (UG)", "setting": "[1]; DMSO:H2O 1:2", "result": 20000, "unit": "µg/mL"}, {"measurement": "preliminary MGC (stable gel)", "setting": "[1]; EtOH:H2O (1:2)", "result": 20.0, "unit": "mg/mL"}, {"measurement": "Gelation result", "setting": "[1]; EtOH", "result": "S (S, soluble (starting test at 20 mg/mL))"}, {"measurement": "Gelation result", "setting": "[2]; Hexane", "result": "I"}, {"measurement": "Gelation result", "setting": "[3]; DMSO:H2O 1:1", "result": "G"}, {"measurement": "Gelation result", "setting": "[3]; DMSO:H2O 1:2", "result": "UG"}, {"measurement": "Gelation result", "setting": "[3]; EtOH:H2O (1:2)", "result": "G"}, {"measurement": "Gelation result", "setting": "[3]; Water", "result": "P"}]}
{"smiles": "CCOC(=O)CNC(=O)CN(CCNC(=O)OC(C)(C)C)C(=O)Cc1ccc2ccccc2c1", "note": "[Compound 33]", "values": [{"measurement": "Gelation result", "setting": "[1]; EtOH", "result": "S (S, soluble (starting test at 20 mg/mL))"}, {"measurement": "Gelation result", "setting": "[2]; Hexane", "result": "I"}, {"measurement": "Gelation result", "setting": "[3]; DMSO:H2O 1:1", "result": "P"}, {"measurement": "Gelation result", "setting": "[3]; DMSO:H2O 1:2", "result": "P"}, {"measurement": "Gelation result", "setting": "[3]; EtOH:H2O (1:2)", "result": "P"}, {"measurement": "Gelation result", "setting": "[3]; Water", "result": "P"}]}
{"smiles": "CCOC(=O)CNC(=O)CN(Cc1ccc(OC)cc1)C(=O)CCC(=O)NC1C(OC)OC2COC(c3ccccc3)OC2C1O", "note": "(stereo not shown) [Compound 34]", "values": [{"measurement": "preliminary MGC (stable gel)", "setting": "[1]; DMSO:H2O 1:1", "result": 20.0, "unit": "mg/mL"}, {"measurement": "preliminary MGC (stable gel)", "setting": "[1]; DMSO:H2O 1:2", "result": 10.0, "unit": "mg/mL"}, {"measurement": "preliminary MGC (stable gel)", "setting": "[1]; EtOH:H2O (1:2)", "result": 20.0, "unit": "mg/mL"}, {"measurement": "preliminary MGC (stable gel)", "setting": "[1]; EtOH", "result": 10.0, "unit": "mg/mL"}, {"measurement": "preliminary MGC (stable gel)", "setting": "[1]; Water", "result": 10.0, "unit": "mg/mL"}, {"measurement": "gelation properties (in words)", "setting": "[1]; screening of Table 3 compounds", "result": "able to gelate in water as well as almost all the tested solvents"}, {"measurement": "Gelation result", "setting": "[2]; Hexane", "result": "I"}, {"measurement": "Gelation result", "setting": "[3]; DMSO:H2O 1:1", "result": "G"}, {"measurement": "Gelation result", "setting": "[3]; DMSO:H2O 1:2", "result": "G"}, {"measurement": "Gelation result", "setting": "[3]; EtOH:H2O (1:2)", "result": "G"}, {"measurement": "Gelation result", "setting": "[3]; EtOH", "result": "G"}, {"measurement": "Gelation result", "setting": "[3]; Water", "result": "G"}]}
{"smiles": "COc1ccc(CN(CC(=O)NCS(=O)(=O)c2ccc(C)cc2)C(=O)c2ccc(Br)cc2)cc1", "note": "[Compound 35]", "values": [{"measurement": "preliminary MGC (stable gel)", "setting": "[1]; DMSO:H2O 1:1", "result": 20.0, "unit": "mg/mL"}, {"measurement": "preliminary MGC (stable gel)", "setting": "[1]; DMSO:H2O 1:2", "result": 20.0, "unit": "mg/mL"}, {"measurement": "preliminary MGC (stable gel)", "setting": "[1]; EtOH:H2O (1:2)", "result": 10.0, "unit": "mg/mL"}, {"measurement": "Gelation result", "setting": "[2]; Hexane", "result": "I"}, {"measurement": "Gelation result", "setting": "[2]; Water", "result": "I"}, {"measurement": "Gelation result", "setting": "[3]; DMSO:H2O 1:1", "result": "G"}, {"measurement": "Gelation result", "setting": "[3]; DMSO:H2O 1:2", "result": "G"}, {"measurement": "Gelation result", "setting": "[3]; EtOH:H2O (1:2)", "result": "G"}, {"measurement": "Gelation result", "setting": "[3]; EtOH", "result": "P"}]}
{"smiles": "COc1ccc(CN(CC(=O)Nc2ccc(Oc3ccc(NC(=O)CN(Cc4ccc(OC)cc4)C(=O)c4ccc(Br)cc4)cc3)cc2)C(=O)c2ccc(Br)cc2)cc1", "note": "[Compound 36]", "values": [{"measurement": "concentration of slightly unstable or partial gel (UG)", "setting": "[1]; DMSO:H2O 1:1", "result": 20000, "unit": "µg/mL"}, {"measurement": "Gelation result", "setting": "[1]; EtOH", "result": "S (S, soluble (starting test at 20 mg/mL))"}, {"measurement": "Gelation result", "setting": "[2]; Hexane", "result": "I"}, {"measurement": "Gelation result", "setting": "[3]; DMSO:H2O 1:1", "result": "UG"}, {"measurement": "Gelation result", "setting": "[3]; DMSO:H2O 1:2", "result": "P"}, {"measurement": "Gelation result", "setting": "[3]; EtOH:H2O (1:2)", "result": "P"}, {"measurement": "Gelation result", "setting": "[3]; Water", "result": "P"}]}
{"smiles": "O=C(CN(C(=O)c1ccccc1)c1ccccc1)NC1CCCCC1", "note": "[Compound 39]", "values": [{"measurement": "Gelation result", "setting": "[1]; EtOH", "result": "S (S, soluble (starting test at 20 mg/mL))"}, {"measurement": "Gelation result", "setting": "[3]; DMSO:H2O 1:1", "result": "P"}, {"measurement": "Gelation result", "setting": "[3]; DMSO:H2O 1:2", "result": "P"}, {"measurement": "Gelation result", "setting": "[3]; EtOH:H2O (1:2)", "result": "P"}, {"measurement": "Gelation result", "setting": "[3]; Hexane", "result": "P"}, {"measurement": "Gelation result", "setting": "[3]; Water", "result": "P"}]}
{"smiles": "COC1OC(CO)C(O)C(O)C1N(CC(=O)NC1CCCCC1)C(=O)c1ccc(Br)cc1", "note": "(stereo not shown) [Compound 40]", "values": [{"measurement": "preliminary MGC (stable gel)", "setting": "[1]; DMSO:H2O 1:1", "result": 20.0, "unit": "mg/mL"}, {"measurement": "preliminary MGC (stable gel)", "setting": "[1]; DMSO:H2O 1:2", "result": 20.0, "unit": "mg/mL"}, {"measurement": "Gelation result", "setting": "[1]; EtOH", "result": "S (S, soluble (starting test at 20 mg/mL))"}, {"measurement": "Gelation result", "setting": "[1]; Hexane", "result": "S (S, soluble (starting test at 20 mg/mL))"}, {"measurement": "Gelation result", "setting": "[2]; Water", "result": "I"}, {"measurement": "Gelation result", "setting": "[3]; DMSO:H2O 1:1", "result": "G"}, {"measurement": "Gelation result", "setting": "[3]; DMSO:H2O 1:2", "result": "G"}, {"measurement": "Gelation result", "setting": "[3]; EtOH:H2O (1:2)", "result": "P"}]}
{"smiles": "O=C(CN(CC(O)CO)C(=O)c1ccc(Br)cc1)NC1CCCCC1", "note": "(stereo not shown) [Compound 41]", "values": [{"measurement": "Gelation result", "setting": "[1]; DMSO:H2O 1:1", "result": "S (S, soluble (starting test at 20 mg/mL))"}, {"measurement": "Gelation result", "setting": "[1]; DMSO:H2O 1:2", "result": "S (S, soluble (starting test at 20 mg/mL))"}, {"measurement": "Gelation result", "setting": "[1]; EtOH:H2O (1:2)", "result": "S (S, soluble (starting test at 20 mg/mL))"}, {"measurement": "Gelation result", "setting": "[1]; EtOH", "result": "S (S, soluble (starting test at 20 mg/mL))"}, {"measurement": "Gelation result", "setting": "[1]; Water", "result": "S (S, soluble (starting test at 20 mg/mL))"}, {"measurement": "Gelation result", "setting": "[2]; Hexane", "result": "I"}]}
{"smiles": "COc1ccc(CN(CC(=O)NCC(=O)O)C(=O)c2ccc(Br)cc2)cc1", "note": "[Compound 42]", "values": [{"measurement": "Gelation result", "setting": "[1]; EtOH", "result": "S (S, soluble (starting test at 20 mg/mL))"}, {"measurement": "Gelation result", "setting": "[2]; Hexane", "result": "I"}, {"measurement": "Gelation result", "setting": "[3]; DMSO:H2O 1:1", "result": "P"}, {"measurement": "Gelation result", "setting": "[3]; DMSO:H2O 1:2", "result": "P"}, {"measurement": "Gelation result", "setting": "[3]; EtOH:H2O (1:2)", "result": "P"}, {"measurement": "Gelation result", "setting": "[3]; Water", "result": "P"}]}
{"smiles": "O=C(O)CNC(=O)CN(Cc1ccccc1)C(=O)c1ccc(C(=O)N(CC(=O)NCC(=O)O)Cc2ccccc2)cc1", "note": "[Compound 43]", "values": [{"measurement": "concentration of slightly unstable or partial gel (UG)", "setting": "[1]; DMSO:H2O 1:1", "result": 20000, "unit": "µg/mL"}, {"measurement": "concentration of slightly unstable or partial gel (UG)", "setting": "[1]; DMSO:H2O 1:2", "result": 20000, "unit": "µg/mL"}, {"measurement": "Gelation result", "setting": "[1]; EtOH", "result": "S (S, soluble (starting test at 20 mg/mL))"}, {"measurement": "Gelation result", "setting": "[2]; Hexane", "result": "I"}, {"measurement": "Gelation result", "setting": "[3]; DMSO:H2O 1:1", "result": "UG"}, {"measurement": "Gelation result", "setting": "[3]; DMSO:H2O 1:2", "result": "UG"}, {"measurement": "Gelation result", "setting": "[3]; Water", "result": "P"}]}
